The record followed here is patent US20080167246A1, “Ophthalmic and Contact Lens Solutions Containing Peptides as Preservative” (BioConcept Laboratories, priority 2003, published 2008).

Holding throughout (format): cell-based
Experiment [1] concerns Serratia marcesens (ATCC 13880). Kind of experiment: Disinfection Efficacy antimicrobial assay (ISO 14729), S. marcescens. Conditions: Exp. 2, 1 hour exposure; for biocidal effect on S. marcescens (in words): 100 ug/mL. The procedure: (§1) Peptides were tested using a conventional Disinfection Efficacy antimicrobial assay (ISO 14729), commonly used in evaluating biocidal efficacy of preservatives for use in contact lens care solutions. Briefly, a known concentration of organisms are inoculated into the test solution, and allowed to incubate for a given amount of time, after which they are neutralized to inactivate the preservative. Samples are serially diluted and plated in duplicate onto petri plates onto which growth medium is poured. The plates are incubated at 35° C. (bacteria) or 25° C. (yeast and molds) for 48 hours. The average number of colony forming units is determined on countable plates (the dilution at which between 30 to 300 cfu/plate are observed, except when colonies are observed only on the −1 dilution plates). The log reduction resulting from exposure to the test solution is calculated based on the growth of positive controls plated simultaneously. Recovery controls, to confirm that the test solution is neutralized, and viability controls are also plated.
(§2) Method: The Disinfection Efficacy test was used with the following organisms: Staphylococcus aureus (ATCC 6538), Pseudomonas aeruginosa (ATCC 9027), Serratia marcesens (ATCC 13880), Candida albicans (ATCC 10231), and Fusarium solani (ATCC 36031). The peptides were diluted in water at a concentration of 100 ug/mL (adjusted for purity). Organism cultures were prepared to result in an inoculum concentration between 10^7 and 10^8 cfu/mL. The test solutions were inoculated for a 1 hour and a 3 hour exposure period, neutralized with DEB with 0.1% SLS added, and plated in duplicate.

In experiment [2] the test system is Candida albicans (ATCC 10231). The experiment is described as follows: Disinfection Efficacy antimicrobial assay (ISO 14729), C. albicans. Conditions: Exp. 2, 1 hour exposure; for biocidal effect on C. albicans (in words): 100 ug/mL. The protocol:
as §1
Method: Candida albicans (ATCC 10231) stock cultures were incubated and prepared to result in cell suspensions containing between 10^7 and 10^8 cfu/mL. The Disinfection Efficacy test, as described above, was used, with the following modification: Since the standard Dey-Engley broth used to neutralize preservatives was not necessarily expected to neutralize the peptide, 0.1% sodium laurel sulfate (SLS) was added to the neutralization solution. Controls confirmed that this was effective in neutralizing the peptide test solution.
Method: The Disinfection Efficacy test was used with the following organisms: Staphylococcus aureus (ATCC 6538), Pseudomonas aeruginosa (ATCC 9027), Serratia marcesens (ATCC 13880), Candida albicans (ATCC 10231), and Fusarium solani (ATCC 36031). The peptides were diluted in water at a concentration of 100 ug/mL (adjusted for purity). Organism cultures were prepared to result in an inoculum concentration between 10^7 and 10^8 cfu/mL. […]

In experiment [3] the test system is Fusarium solani (ATCC 36031). The experiment is described as follows: Disinfection Efficacy antimicrobial assay (ISO 14729), F. solani. Conditions: Exp. 2, 1 hour exposure; for biocidal effect on F. solani (in words): 100 ug/mL. The procedure: as §1, §2
Experiment [4] deals with Staphylococcus aureus (ATCC 6538). Kind of experiment: Disinfection Efficacy antimicrobial assay (ISO 14729), S. aureus. Conditions: for biocidal effect on S. aureus (in words): 100 ug/mL. The procedure:
as §1, §2
(§3) Method: The Disinfection Efficacy test was used as in experiment 2 using Staphylococcus aureus and Pseudomonas aeruginosa. The peptides were diluted in water at concentrations of 100, 33.3, 10, 3.33, and 1 ug/mL. The test solutions were inoculated for 1 hour, neutralized, and plated in duplicate.

Experiment [5] has as its system Pseudomonas aeruginosa (ATCC 9027). Kind of experiment: Disinfection Efficacy antimicrobial assay (ISO 14729), P. aeruginosa. Conditions: for biocidal effect on P. aeruginosa (in words): 100 ug/mL; for lowest concentration resulting in complete kill of P. aeruginosa: 1 hour, tested at 100, 33.3, 10, 3.33 and 1 ug/mL. The procedure: as §1, §2, §3
Experiment [6] deals with Staphylococcus aureus, Pseudomonas aeruginosa, Serratia marcesens, Candida albicans, Fusarium solani. The experiment is described as follows: Disinfection Efficacy test, all 5 organisms of Experiment 2. Conditions: Exp. 2; 100 ug/mL, one hour exposure. The protocol: as §1
Method: The Disinfection Efficacy test was used with the following organisms: Staphylococcus aureus (ATCC 6538), Pseudomonas aeruginosa (ATCC 9027), Serratia marcesens (ATCC 13880), Candida albicans (ATCC 10231), and Fusarium solani (ATCC 36031). The peptides were diluted in water at a concentration of 100 ug/mL (adjusted for purity). […]

The mark [7] stands for this setting: Exp. 2, 100 ug/mL in water, 1 hour exposure.
[8] abbreviates: Exp. 3, Conc. 3.33 μg/mL, T = 1 hr.
[9] abbreviates: Exp. 3, Conc. 33 μg/mL, T = 1 hr.
[10] abbreviates: Exp. 3, Conc. 100 μg/mL, T = 1 hr.

Non-standard residues stand in square brackets, D forms with d. Residues, ends and D or L forms follow the SMILES beside them. No end group written: not given here.

Regarding `C[C@@H](N)C(=O)N[C@H](CCCCN)C(=O)N[C@H](CCCNC(=N)N)C(=O)N[C@H](Cc1c[nH]cn1)C(=O)N[C@H](Cc1c[nH]cn1)C(=O)NCC(=O)N[C@H](Cc1ccc(O)cc1)C(=O)N[C@H](CCCCN)C(=O)N[C@H](CCCNC(=N)N)C(=O)N[C@H](CCCCN)C(=O)N[C@H](Cc1ccccc1)C(=O)N[C@H](Cc1c[nH]cn1)C(N)=O` [P-113D] (H-[dA][dK][dR][dH][dH]G[dY][dK][dR][dK][dF][dH]-NH2; N-terminus and C-terminus assumed), in experiment [1], the “biocidal effect on S. marcescens (in words)” value is given as “no effect”. Also, the “biocidal effect on C. albicans (in words)” value in experiment [2] is “effective”. Besides, the “biocidal effect on F. solani (in words)” value in experiment [3] is listed as “effective”. In addition, the “biocidal effect on S. aureus (in words)” value in experiment [4] (Exp. 2, 1 hour exposure) is recorded as “no effect”. Further, the “biocidal effect on P. aeruginosa (in words)” value in experiment [5] (Exp. 2, 1 hour exposure) is recorded as “effective”.
For the compound FAKKFAKKFKKFAKKFAKFAFAF [D2A21], the “average cfu/mL” value in experiment [1] (100 ug/mL in water), in experiment [2] (100 ug/mL in water), in experiment [3] (100 ug/mL in water), in experiment [4] (setting [7]), in experiment [4] (setting [8]) and in experiment [4] (setting [9]) was 0.00E+00 cfu/mL throughout. The “average cfu/mL” value in experiment [4] (setting [10]) stood at 0.00E+00 cfu/mL; in experiment [5] (setting [7]) it was 0.00E+00 cfu/mL; in experiment [5] (Exp. 3, Conc. 1 μg/mL, T = 1 hr), 0.00E+00 cfu/mL; in experiment [5] (setting [8]), 0.00E+00 cfu/mL; in experiment [5] (Exp. 3, Conc. 10 μg/mL, T = 1 hr), 0.00E+00 cfu/mL; in experiment [5] (setting [9]), 0.00E+00 cfu/mL. Moreover, in experiment [5] (setting [10]), the “average cfu/mL” value stood at 0.00E+00 cfu/mL. Moreover, the “kill of all 5 organisms (in words)” value in experiment [6] was “complete kill”. Moreover, the “concentration achieving complete kill of S. aureus” value in experiment [4] (Exp. 3, 1 hour, tested at 100, 33.3, 10, 3.33 and 1 ug/mL) was 3.33 µg/mL. In addition, the “lowest concentration resulting in complete kill of P. aeruginosa” value in experiment [5] (Exp. 3) worked out at 1 µg/mL.
As to “AKRHHGYKRKFH-NH2 (C-terminus assumed) [P-113]”, the “biocidal effect on S. marcescens (in words)” value in experiment [1] was “no effect”. The “biocidal effect on C. albicans (in words)” value in experiment [2] was “effective”. The “biocidal effect on F. solani (in words)” value in experiment [3] is recorded as “effective”. The “biocidal effect on S. aureus (in words)” value in experiment [4] (Exp. 2, 1 hour exposure) is given as “no effect”. Besides, the “effectiveness against S. aureus (in words)” value in experiment [4] (Exp. 3, 1 to 100 ug/mL, 1 hour) was “not effective”. Besides, the “biocidal effect on P. aeruginosa (in words)” value in experiment [5] (Exp. 2, 1 hour exposure) is reported as “effective”. The “lowest concentration resulting in complete kill of P. aeruginosa” value in experiment [5] (Exp. 3) was 3.33 µg/mL. Besides, the results for the “average cfu/mL” value in experiment [5] (setting [8]), in experiment [5] (setting [9]) and in experiment [5] (setting [10]) were 5.00E+00 cfu/mL, 0.00E+00 cfu/mL and 0.00E+00 cfu/mL, respectively.
